Test results taken from PubChem BioAssay (NCI).
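1) Cells in 96-well plates. 2) Compound, 48 h, 5 concentrations. 3) Linear interpolation between surrounding doses. 4) Unreached endpoint = highest concentration. GI50 is the concentration that inhibits growth by half. TGI is the concentration that stops growth completely.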

How the values were obtained:
Experiment in all cases: DTP human tumour cell line panel, 48 h
TK-10 renal = test system: TK-10 renal
HL-60(TB) leukemia = test system: HL-60(TB) leukemia
MDA-MB-231 breast = test system: MDA-MB-231 breast
HCT-116 colon = test system: HCT-116 colon
U251 CNS = test system: U251 CNS
NCI/ADR-RES ovarian = test system: NCI/ADR-RES ovarian
SN12C renal = test system: SN12C renal
SF-539 CNS = test system: SF-539 CNS
COLO 205 colon = test system: COLO 205 colon
SNB-75 CNS = test system: SNB-75 CNS

Row | Compound | GI50 (TK-10 renal) [µM] | TGI (TK-10 renal) [µM] | GI50 (HL-60(TB) leukemia) [µM] | TGI (HL-60(TB) leukemia) [µM] | GI50 (MDA-MB-231 breast) [µM] | TGI (MDA-MB-231 breast) [µM] | GI50 (HCT-116 colon) [µM] | TGI (HCT-116 colon) [µM] | GI50 (U251 CNS) [µM] | TGI (U251 CNS) [µM] | GI50 (NCI/ADR-RES ovarian) [µM] | TGI (NCI/ADR-RES ovarian) [µM] | GI50 (SN12C renal) [µM] | TGI (SN12C renal) [µM] | GI50 (SF-539 CNS) [µM] | TGI (SF-539 CNS) [µM] | GI50 (COLO 205 colon) [µM] | TGI (COLO 205 colon) [µM] | GI50 (SNB-75 CNS) [µM] | TGI (SNB-75 CNS) [µM]
1 | CCN(CC)c1cc(/C=C/c2ccc(OC)c(OC)c2)nc2cc(F)c(F)cc12 | 2.99 | 8.75 | 12.2 | 31.3 | 2.3 | 7.47 | 5.35 | 17.5 | 2.18 | 4.98 | 7.52 | > 100 | 10.7 | > 100 | 10.4 | 92.9 | 26.7 | > 100 | 1.39 | 2.89
2 | CN1CCCNc2c(c(=O)c2=O)NCCCN(C)CCCNc2c(c(=O)c2=O)NCCCN(C)CCCNc2c(c(=O)c2=O)NCCCN(C)CCCNc2c(c(=O)c2=O)NCCCN(C)CCCNc2c(c(=O)c2=O)NCCCN(C)CCCNc2c(c(=O)c2=O)NCCCN(C)CCCNc2c(c(=O)c2=O)NCCC1 | 1.71 | 8.24 | 5.82 | 32.4 | 4.42 | 19.1 | 5.81 | 17.4 | 2.23 | > 50 | 5.96 | 26.7 | 1.34 | 14.2 | 1.89 | 7.69 | 2 | 6.13 | 9.48 | 19.3
3 | COc1ccc(NC(=O)n2nc(N)c3ccccc32)cc1OC | 92.4 | > 100 | 27.9 | > 100 | 53.6 | > 100 | 43.5 | > 100 | 61.7 | > 100 | 37.6 | > 100 | > 100 | > 100 | 95.9 | > 100 | 85.8 | > 100 | 30.6 | > 100
4 | ClC1=C(Cl)C(Cl)=C(Cl)C1=C/C=C/c1ccccc1 | 0.562 | 2.04 | 0.329 |  | 0.344 | > 100 | 0.213 | 0.457 | 0.346 | 1.37 | 0.393 |  | 0.407 | 2.15 | 0.206 | 0.699 | 0.226 | 0.686 | 0.251 | 1.85
5 | NC(CSC(c1ccccc1)(c1ccccc1)c1ccc(Cl)cc1)C(=O)O (stereo not drawn) | 13.5 | 64.7 | 0.24 | 0.724 | 0.442 | 35.8 | 0.0476 | 11.2 | 0.0978 | 18.1 | 0.712 | 7.3 | 0.54 | > 57.8 | 0.148 | 2.87 | 0.256 | 0.768 |  | 1.85
6 | COc1cccc(C2C(C#N)=C(N)Oc3cc(N)ccc32)c1 (stereo not drawn) | 2.83 | > 100 | 0.35 | 0.745 | 1.29 | 59.6 | 0.383 | > 72.2 | 0.369 |  | 0.346 | 4.38 | 0.689 | > 100 | 0.343 | 1.37 | 0.385 | 2.09 | 0.293 | > 100
7 | CN(C)c1ccc(/C=C(/NC(=O)c2ccccc2)c2nc3ccc(Cl)cc3[nH]2)cc1 |  | > 100 |  | 66.9 | 28.4 | > 95.3 |  | > 100 |  | > 100 | 30.7 | > 100 |  | > 100 |  | > 100 |  | 66.7 |  | > 91.3
8 | COc1ccc(/C(Cl)=C(\C=O)c2ccc([N+](=O)[O-])cc2)cc1OC |  | > 47.3 |  | 11.6 |  | 83.9 |  | 24.9 |  | 20.2 |  | 53.3 |  | 22.1 |  | 30.8 |  | > 58.3 |  | 20
9 | CCCCCCCC/C=C/CCCCCCCC1=NCC[N+]1(CCO)CCO | 1.94 | 4.39 | 1.75 | 4.68 | 2.47 | 8.81 | 2.81 | 8.78 | 1.42 | 2.86 | 11.8 | 37.7 | 3.2 | 12.6 | 3.7 | 13.1 | 1.98 | 4.91 | 2.39 | 9.52
10 | Cc1cc2cc3cc(C)c(N(C)C)cc3nc2cc1N(C)C | 4.03 | 31.2 | 0.34 | > 100 | 2.33 | 7.59 | 2.12 | > 100 | 1.42 | > 100 | 31.7 | > 100 | 3.22 | 29.3 | 3.08 | 12.7 | 1.84 | 7.41 | 2.35 | 20.1
